Key:
[1] = tested on: Hh pathway target genes Gli1 and Hip in Sufu-/- MEFs; experiment: Hh target gene expression in Sufu-/- mouse embryonic fibroblasts; assay type: cell-based; conditions: 72 h
Experimental: Total RNA was extracted with the RNeasy Plus Mini Kit from Qiagen (Hilden, Germany) according to the manufacturer’s instructions. One microgram of RNA was reverse-transcribed using an iScript Reverse Transcription Supermix from Bio-Rad Laboratories (Hercules, CA, USA) to make single-stranded cDNA. The cDNAs were then mixed with Qi SYBR Green Supermix (Bio-Rad) for quantitative RT-PCR assay using a Bio-Rad I-cycler IQ quantitative thermocycler. All PCR samples were prepared in triplicate wells in a 96-well plate. After 40 cycles of PCR, melt curves were examined in order to ensure primer specificity. Fold changes in gene expression were calculated using the ΔΔCt method. Primers used for mouse were as follows: Oaz1 (5′-CCACTGCTTCGCCAGAGAG-3′) and (5′-CCCGGACCCAGGTTACTA-3′), Gli1 (5′- […]-3′ and 5′- GCT GATCCAGCCTAAGGTTCTC-3′), Ptch1 (5′-CCATCGGCGACAAGAACC-3′ and 5′-[…]-3′), Thbs1 (5′-[…]-3′ and 5′-CGGGGATCAGGTTGGCATT-3′), Cryab (5′-[…]-3′ and 5′-[…]-3′), Egr2 (5′-[…]-3′ and 5′-[…]-3′), CTGF (5′-GGGCCTCTTCTGCGATTTC-3′ and 5′-[…]-3′).
Figure 5 Oxy210 acts downstream of Smo. (a) Sufu-/- MEF cells were treated with DMEM containing 5% FBS in the presence or absence of Oxy210. After 72 h, RNA was extracted and analyzed by Q-RT-PCR for the expression of Hh target genes Gli1 and Hip, normalized to Oaz1 expression. […] Luciferase activity was measured and normalized to the Renilla luciferase activity. […]

Liver X Receptor (LXR) [2] = assay type: cell-based; conditions: mouse
pKa = assay type: physicochemical; conditions: printed in Figure 1, method not stated
Text: Figure 1 The molecular structures of Cholesterol, Oxy8, Oxy133, Oxy16, Oxy186 and Oxy210. TEXT PRINTED IN THE PICTURE: Oxy210: pKa ~ 5

[3] = Metabolic stability in mouse liver microsomes; assay type: in vitro ADME
Liver X Receptor (LXR) [4] = experiment: LXR activity, summary of drug-like properties; assay type: cell-based

In the case of `C[C@]12CC[C@H]3[C@@H](CC=C4C[C@@H](O)CC[C@@]43C)[C@@H]1CC[C@@H]2[C@](C)(O)CCc1cccnc1` [Oxy210, (3S,8S,9S,10R,13S,14S,17S)-17-((R)-2-hydroxy-4-(pyridin-3-yl)butan-2-yl)-10,13-dimethyl-2,3,4,7,8,9,10,11,12,13,14,15,16,17-tetradecahydro-1H-cyclopenta[a]phenanthren-3-ol], the “high baseline expression of Hh pathway target genes Gli1 and Hip” value [1] is reported as “significant inhibition”, the ABCA1 expression (Liver X Receptor (LXR) [2]) is reported as “absence of ABCA1 expression” and the pKa (pKa) is reported as roughly 5. The remaining at 1 h ([3]; read-out: MLM, % Remaining after 60 min) was 61%, the half-life ([3]; read-out: MLM, Half-Life) was 1.4 h and the LXR activity (Liver X Receptor (LXR) [4]) was “devoid of undesirable Liver X Receptor (LXR) activity”.

Reference: publication PMC6829886, “Inhibition of Non-Small Cell Lung Cancer Cells by Oxy210, an Oxysterol-Derivative that Antagonizes TGFβ and Hedgehog Signaling” (Cells, 2019)
